Assay: Solubility determination
Conditions: for Sol6: pH 6; for Sol7: pH 7
Experimental: Peptides (as TFA salts) were weighed out in a filter unit (Mini-UniPrep Syringeless Filter 0.45 μm, Whatman), and 0.1 M sodium diphosphate buffer at pH 6.4 or 7.0 was added to achieve 10 mg/ml final concentration. The peptide was dissolved by shaking the filter unit horizontally at 600 rpm for 2 hours at room temperature. The sample was filtered, to remove any insoluble particles and diluted to 1 mg/ml in 50% acetonitrile. The control was prepared by weighing out the corresponding peptide and dissolving it in 50% acetonitrile to final concentration of 1 mg/ml. Both the control and sample were analysed with reversed phase chromatography. The area under the peak of the sample was compared to the control and the solubility was calculated based on that ratio.
The pH was measured and recorded for each sample.
System: UltiMate 3000 UPLC, ThermoFisher
Mobile phase A: 5% acetonitrile, 95% water, 0.03% trifluoracetic acid.
Mobile phase B: 95% acetonitrile, 5% water, 0.03% trifluoracetic acid.
Gradient: 0-100% mobile phase B (2 mins.)
Column temperature: 50° C.

Compound	Sol6 [mg/mL]	Sol7 [mg/mL]
CC(C)CC(=O)N[C@@H](C)C(=O)N1CCC[C@H]1C(=O)N[C@@H](CCC(=O)O)C(=O)N[C@@H](CCCCNC(=O)CCCCCNC(=O)CC[C@H](NC(=O)CCCCCCCCCCCCCCCCC(=O)O)C(=O)O)C(=O)N1CCC[C@H]1C(=O)N[C@@H](CCC(=O)O)C(=O)N[C@@H](CCC(=O)O)C(=O)N[C@@H](CC(=O)O)C(=O)N[C@@H](C)C(=O)N[C@H](C(=O)N1CCC[C@H]1C(=O)N[C@@H](CCC(=O)O)C(=O)N[C@@H](CCC(=O)O)C(=O)N[C@@H](CC(C)C)C(=O)N[C@@H](CCC(N)=O)C(=O)N[C@@H](CCCNC(=N)N)C(=O)N[C@@H](Cc1ccc(O)cc1)C(=O)N[C@@H](CCC(N)=O)C(=O)N[C@H](C(=O)N[C@@H](CO)C(=O)N[C@@H](CC(C)C)C(=O)N[C@@H](CCCNC(=N)N)C(=O)N[C@@H](Cc1c[nH]cn1)C(=O)N[C@@H](Cc1ccc(O)cc1)C(=O)N[C@@H](Cc1ccc(O)cc1)C(=O)N[C@@H](CC(N)=O)C(=O)N[C@@H](Cc1c[nH]c2ccccc12)C(=O)N[C@@H](CC(C)C)C(=O)N[C@H](C(=O)N[C@@H](CCCNC(=N)N)C(=O)N[C@@H](CCC(N)=O)C(=O)N[C@@H](CCCNC(=N)N)C(=O)N[C@@H](Cc1ccc(O)cc1)C(N)=O)[C@@H](C)O)C(C)C)[C@@H](C)O [Compound 115, N{alpha-4}-(3-methylbutanoyl)-N{epsilon-7}-(6-[(4S)-4-carboxy-4-(17-carboxyheptadecanamido)butanamido]hexanoyl)-[4A,7K,9E,13T,18Q,21Q,22V,28Y,30W,31L]-hPYY(4-36)]	9.0	8.5
CC[C@H](C)[C@H](NC(=O)[C@H](CCC(=O)O)NC(=O)[C@H](CCC(=O)O)NC(=O)[C@@H]1CCCN1C(=O)[C@H](CCC(=O)O)NC(=O)[C@H](C)NC(=O)[C@H](C)NC(=O)[C@H](C)NC(=O)[C@H](CCC(=O)O)NC(=O)[C@@H]1CCCN1C(=O)[C@H](CCCCNC(=O)CCCCCNC(=O)CC[C@H](NC(=O)CCCCCCCCCCCCCCCCC(=O)O)C(=O)O)NC(=O)[C@H](C)NC(=O)[C@@H]1CCCN1C(=O)[C@H](C)NC(=O)CC(C)C)C(=O)N[C@@H](CCC(N)=O)C(=O)N[C@@H](CCCNC(=N)N)C(=O)N[C@@H](Cc1ccc(O)cc1)C(=O)N[C@@H](Cc1ccc(O)cc1)C(=O)N[C@H](C(=O)N[C@@H](C)C(=O)N[C@@H](CC(C)C)C(=O)N[C@@H](CCCNC(=N)N)C(=O)N[C@@H](Cc1c[nH]cn1)C(=O)N[C@@H](Cc1ccc(O)cc1)C(=O)N[C@@H](Cc1ccc(O)cc1)C(=O)N[C@@H](CC(N)=O)C(=O)N[C@@H](Cc1c[nH]c2ccccc12)C(=O)N[C@@H](CC(C)C)C(=O)N[C@H](C(=O)N[C@@H](CCCNC(=N)N)C(=O)N[C@@H](CCC(N)=O)C(=O)N[C@@H](CCCNC(=N)N)C(=O)N[C@@H](Cc1ccc(O)cc1)C(N)=O)[C@@H](C)O)C(C)C [Compound 116, N{alpha-4}-(3-methylbutanoyl)-N{epsilon-7}-(6-[(4S)-4-carboxy-4-(17-carboxyheptadecanamido)butanamido]hexanoyl)-[4A,6A,7K,9E,10A,11A,13E,17I,18Q,22V,23A,28Y,30W,31L]-hPYY(4-36)]	0.0	0.0

Now from value to molecule:

Sol6 [mg/mL]	Sol7 [mg/mL]	Compound
8.8	9.1	CC(C)CC(=O)N[C@@H](C)C(=O)N1CCC[C@H]1C(=O)N[C@@H](C)C(=O)N[C@@H](CCCCNC(=O)CCCCCNC(=O)CC[C@H](NC(=O)CCCCCCCCCCCCCCCCC(=O)O)C(=O)O)C(=O)N1CCC[C@H]1C(=O)N1CCC[C@H]1C(=O)N[C@@H](CCC(=O)O)C(=O)N[C@@H](CC(=O)O)C(=O)N[C@@H](C)C(=O)N[C@@H](CCC(=O)O)C(=O)N1CCC[C@H]1C(=O)N[C@@H](CCC(=O)O)C(=O)N[C@@H](CCC(=O)O)C(=O)N[C@@H](CC(C)C)C(=O)N[C@@H](CCC(N)=O)C(=O)N[C@@H](CCCNC(=N)N)C(=O)N[C@@H](Cc1ccc(O)cc1)C(=O)N[C@@H](Cc1ccc(O)cc1)C(=O)N[C@H](C(=O)N[C@@H](CO)C(=O)N[C@@H](CC(C)C)C(=O)N[C@@H](CCCNC(=N)N)C(=O)N[C@@H](Cc1c[nH]cn1)C(=O)N[C@@H](Cc1ccc(O)cc1)C(=O)N[C@@H](Cc1ccc(O)cc1)C(=O)N[C@@H](CC(N)=O)C(=O)N[C@@H](Cc1c[nH]c2ccccc12)C(=O)N[C@@H](CC(C)C)C(=O)N[C@H](C(=O)N[C@@H](CCCNC(=N)N)C(=O)N[C@@H](CCC(N)=O)C(=O)N[C@@H](CCCNC(=N)N)C(=O)N[C@@H](Cc1ccc(O)cc1)C(N)=O)[C@@H](C)O)C(C)C [Compound 165, N{alpha-4}-(3-methylbutanoyl)-N{epsilon-7}-(6-[(4S)-4-carboxy-4-(17-carboxyheptadecanamido)butanamido]hexanoyl)-[4A,6A,7K,9P,13E,18Q,22V,28Y,30W,31L]-hPYY(4-36)]
9.6	10.0	CC(C)CC(=O)N[C@@H](C)C(=O)N1CCC[C@H]1C(=O)N[C@@H](CCC(=O)O)C(=O)N[C@@H](CCCCNC(=O)CCCCCNC(=O)CC[C@H](NC(=O)CCCCCCCCCCCCCCCCC(=O)O)C(=O)O)C(=O)N1CCC[C@H]1C(=O)N[C@@H](CCC(=O)O)C(=O)N[C@@H](C)C(=O)N[C@@H](CC(=O)O)C(=O)N[C@@H](C)C(=O)N[C@@H](CCC(=O)O)C(=O)N1CCC[C@H]1C(=O)N[C@@H](CCC(=O)O)C(=O)N[C@@H](CCC(=O)O)C(=O)N[C@@H](CC(C)C)C(=O)N[C@@H](CCC(N)=O)C(=O)N[C@@H](CCCNC(=N)N)C(=O)N[C@@H](Cc1ccc(O)cc1)C(=O)N[C@@H](Cc1ccc(O)cc1)C(=O)N[C@H](C(=O)N[C@@H](C)C(=O)N[C@@H](CC(C)C)C(=O)N[C@@H](CCCNC(=N)N)C(=O)N[C@@H](Cc1c[nH]cn1)C(=O)N[C@@H](Cc1ccc(O)cc1)C(=O)N[C@@H](Cc1ccc(O)cc1)C(=O)N[C@@H](CC(N)=O)C(=O)N[C@@H](Cc1c[nH]c2ccccc12)C(=O)N[C@@H](CC(C)C)C(=O)N[C@H](C(=O)N[C@@H](CCCNC(=N)N)C(=O)N[C@@H](CCC(N)=O)C(=O)N[C@@H](CCCNC(=N)N)C(=O)N[C@@H](Cc1ccc(O)cc1)C(N)=O)[C@@H](C)O)C(C)C [Compound 6, N{alpha-4}-(3-methylbutanoyl)-N{epsilon-7}-(6-[(4S)-4-carboxy-4-(17-carboxyheptadecanamido)butanamido]hexanoyl)[4A,7K,9E,10A,13E,18Q,22V,23A,28Y,30W,31L]-hPYY(4-36)]
8.1	7.6	CC(C)CC(=O)N[C@@H](C)C(=O)N1CCC[C@H]1C(=O)N[C@@H](C)C(=O)N[C@@H](CCCCNC(=O)CCCCCNC(=O)CC[C@H](NC(=O)CCCCCCCCCCCCCCCCC(=O)O)C(=O)O)C(=O)N1CCC[C@H]1C(=O)N[C@@H](CCC(=O)O)C(=O)N[C@@H](CCC(=O)O)C(=O)N[C@@H](CC(=O)O)C(=O)N[C@@H](C)C(=O)N[C@@H](CO)C(=O)N1CCC[C@H]1C(=O)N[C@@H](CCC(=O)O)C(=O)N[C@@H](CCC(=O)O)C(=O)N[C@@H](CC(C)C)C(=O)N[C@@H](CCC(N)=O)C(=O)N[C@@H](CCCNC(=N)N)C(=O)N[C@@H](Cc1ccc(O)cc1)C(=O)N[C@@H](Cc1ccc(O)cc1)C(=O)N[C@H](C(=O)N[C@@H](CO)C(=O)N[C@@H](CC(C)C)C(=O)N[C@@H](CCCNC(=N)N)C(=O)N[C@@H](Cc1c[nH]cn1)C(=O)N[C@@H](Cc1ccc(O)cc1)C(=O)N[C@@H](Cc1ccc(O)cc1)C(=O)N[C@@H](CCC(N)=O)C(=O)N[C@@H](Cc1c[nH]c2ccccc12)C(=O)N[C@@H](CC(C)C)C(=O)N[C@H](C(=O)N[C@@H](CCCNC(=N)N)C(=O)N[C@@H](CCC(N)=O)C(=O)N[C@@H](CCCNC(=N)N)C(=O)N[C@@H](Cc1ccc(O)cc1)C(N)=O)[C@@H](C)O)C(C)C [Compound 78, N{alpha-4}-(3-methylbutanoyl)-N{epsilon-7}-(6-[(4S)-4-carboxy-4-(17-carboxyheptadecanamido)butanamido]hexanoyl)-[4A,6A,7K,9E,18Q,22V,28Y,29Q,30W,31L]-hPYY(4-36)]
0.0	0.0	CC(C)CC(=O)N[C@@H](C)C(=O)N1CCC[C@H]1C(=O)N[C@@H](C)C(=O)N[C@@H](CCCCNC(=O)CCCCCNC(=O)CC[C@H](NC(=O)CCCCCCCCCCCCCCCCC(=O)O)C(=O)O)C(=O)N1CCC[C@H]1C(=O)N[C@@H](CCC(=O)O)C(=O)N[C@@H](C)C(=O)N[C@@H](C)C(=O)N[C@@H](C)C(=O)N[C@@H](CCC(=O)O)C(=O)N1CCC[C@H]1C(=O)N[C@@H](CCC(=O)O)C(=O)N[C@@H](CCC(=O)O)C(=O)N[C@@H](CC(C)C)C(=O)N[C@@H](CCC(N)=O)C(=O)N[C@@H](CCCNC(=N)N)C(=O)N[C@@H](Cc1ccc(O)cc1)C(=O)N[C@@H](Cc1ccc(O)cc1)C(=O)N[C@H](C(=O)N[C@@H](C)C(=O)N[C@@H](CC(C)C)C(=O)N[C@@H](CCCNC(=N)N)C(=O)N[C@@H](Cc1c[nH]cn1)C(=O)N[C@@H](Cc1ccc(O)cc1)C(=O)N[C@@H](Cc1ccc(O)cc1)C(=O)N[C@@H](CC(N)=O)C(=O)N[C@@H](Cc1c[nH]c2ccccc12)C(=O)N[C@@H](CC(C)C)C(=O)N[C@H](C(=O)N[C@@H](CCCNC(=N)N)C(=O)N[C@@H](CCC(N)=O)C(=O)N[C@@H](CCCNC(=N)N)C(=O)N[C@@H](Cc1ccc(O)cc1)C(N)=O)[C@@H](C)O)C(C)C [Compound 10, N{alpha-4}-(3-methylbutanoyl)-N{epsilon-7}-(6-[(4S)-4-carboxy-4-(17-carboxyheptadecanamido)butanamido]hexanoyl)[4A,6A,7K,9E,10A,11A,13E,18Q,22V,23A,28Y,30W,31L]-hPYY(4-36)]

Source: patent US12391737B2, “Soluble NPY2 receptor agonists” (Boehringer Ingelheim International GmbH, priority 2020, dated 2025)
